Results as given in the CheMixHub viscosity set.

Test: xn = mol fraction of the nth substance listed

CCCC[N+](CCCC)(CCCC)CCCC.[I-] + CCCCCCCCCO
101.3 kPa, x1 = 0.0476
Details | viscosity [mPa·s]
293.15 K | 16.29
298.15 K | 13.16
303.15 K | 10.92
308.15 K | 9.085
313.15 K | 7.675
318.15 K | 6.439
323.15 K | 5.529

CCCOC(C)=O + CCCCCCCCO
viscosity [mPa·s], 101 kPa
Details | x2 = 0.075 | x2 = 0.1542 | x2 = 0.2382 | x2 = 0.3272 | x2 = 0.4218 | x2 = 0.5225 | x2 = 0.6299 | x2 = 0.7448 | x2 = 0.8678
298.15 K | 0.692 | 0.851 | 1.053 | 1.316 | 1.666 | 2.143 | 2.823 | 3.811 | 5.28
303.15 K | 0.638 | 0.776 | 0.955 | 1.185 | 1.488 | 1.897 | 2.47 | 3.302 | 4.526
308.15 K | 0.584 | 0.705 | 0.862 | 1.061 | 1.323 | 1.671 | 2.154 | 2.848 | 3.868
313.15 K | 0.533 | 0.638 | 0.774 | 0.95 | 1.177 | 1.475 | 1.885 | 2.468 | 3.326

ClC(Cl)(Cl)Cl + CCCCCCCCO
viscosity [mPa·s], 101 kPa
Details | 298.15 K | 308.15 K | 318.15 K
x2 = 0.023 | 0.92 | 0.796 | 0.696
x2 = 0.06 | 1 | – | –
x2 = 0.1038 | 1.1 | 0.937 | 0.805
x2 = 0.12 | 1.139 | – | –
x2 = 0.17 | 1.297 | – | –
x2 = 0.2244 | 1.468 | 1.221 | 1.029
x2 = 0.23 | 1.47 | – | –
x2 = 0.3266 | 1.867 | 1.527 | 1.255
x2 = 0.44 | 2.483 | – | –
x2 = 0.54 | 3.124 | – | –
x2 = 0.5645 | 3.223 | 2.495 | 1.946
x2 = 0.64 | 3.847 | – | –
x2 = 0.7021 | 4.311 | 3.197 | 2.447
x2 = 0.83 | 5.58 | – | –
x2 = 0.8568 | 5.746 | 4.172 | 3.118
